# Results taken from publication PMC10893061, “Novel 2,5-Diketopiperazines with In Vitro Activities against Protozoan Parasites of Tropical Diseases” (Pharmaceuticals, 2024).
# Read-outs that look alike come from different tables or passages of the source.
# Tests used:
# [1] = system: human and monkey cell lines; design: method as in PMID 14513908; conditions: cited from earlier work
# P. falciparum = system: P. falciparum; design: method as in PMID 14513908; conditions: cited from earlier work
# [2] = Cytotoxicity on THP-1 derived macrophages (AlamarBlue); type: cell-based; conditions: human, THP-1 cells differentiated into macrophages, THP-1 macrophages
# Method: For the cytotoxicity assay, human monocytic THP-1 cells were differentiated into macrophages in 96-well microtiter plates for 72 h, as described above. The medium was then replaced, and the cells were exposed to the compounds at increasing concentrations starting at IC50 value for each Leishmania spp. line. After 72 h of incubation with the compounds, AlamarBlue™ was added and the absorbance at 570 and 600 nm was measured after 4 h. Controls with untreated and DMSO 1%-treated cells were run in parallel. The results were expressed as the percentual difference in the reduction between treated and untreated cells. The compound concentration that inhibits 50% of the THP-1 cell viability (CC50) was determined. The CC50 values were determined by non-linear regression using a variable slope model (log(concentration) vs. growth inhibition) with the GraphPad Prism v8.2.0 (CA, USA) software. Triplicates were run in the same plate and the experiments were repeated at least once.
# [3] = system: Leishmania infantum (MHOM/BR/1974/PP75) in THP-1 macrophages; assay: Anti-Leishmania infantum activity assay (infected THP-1 macrophages, red fluorescence); type: cell-based; conditions: for IC50: Leishmania infantum, L. infantum in THP-1 macrophages, 72 h; for Status: L. infantum, activity status from IC50 and SI
# Method: (§1) Their half-maximum cytotoxic concentrations (CC50) and their selectivity indices (SI), obtained as the ratio of the cytotoxic concentration against the bioactive concentration are shown in Table 2. Theoretically, the higher the SI value, the greater the effectiveness for the target and the lower the toxicity of the compound, characterizing a potentially safe and selective drug.
# Cells derived from the human monocytic strain THP-1 were cultured in complete Rowell Park Memorial Institute (RPMI)-1640 medium (supplemented with 10% fetal bovine serum, 100 U/mL penicillin, and 100 μg/mL streptomycin). Monocytes were differentiated into macrophages by the addition of 20 ng/mL phorbol myristate acetate (PMA). […] The IC50 values were determined by non-linear regression using a variable slope model (log[concentration] vs. growth inhibition) with the GraphPad Prism v8.2.0 (Boston, MA, USA) software. Controls with uninfected cells, untreated infected cells, infected cells treated with amphotericin B at 0.25 μM (positive control) or DMSO 1% were used. Quadruplicates were run in the same plate, and the experiments were repeated at least once.
# [4] = system: T. cruzi Tulahuen strain in L929 cells; assay: Anti-Trypanosoma cruzi activity assay (infected L929 cells, beta-galactosidase reporter); type: cell-based; conditions: for IC50: Trypanosoma cruzi, T. cruzi Tulahuen in L929 cells, 96 h; for Status: T. cruzi, activity status from IC50 and SI
# Method: as §1
# The in vitro anti-T. cruzi activity was evaluated on L929 cells (mouse fibroblasts) infected with Tulahuen strain of the parasite expressing the Escherichia coli β-galactosidase as reporter gene according to the method described previously. Briefly, four thousand L929 cells were added to each well of a 96-well microtiter plate. After an overnight incubation, a 10 fold excess of trypomastigotes were added to the cells, incubated for 2 h, then replaced with 200 μL of fresh medium and incubated for additional 48 h to establish the infection. For IC50 determination, the cells were exposed to each synthesized compound at serial decreasing dilutions and the plate was incubated for 96 h. Afterwards, 50 μL of 500 μM chlorophenol red beta-D-galactopyranoside (CPRG) in 0.5% Nonidet P40 was added to each well, and the plate incubated for 16 to 20 h, after which the absorbance at 570 nm was measured. Controls with uninfected cells, untreated infected cells, infected cells treated with benznidazole at 3.8 μM (positive control) or 1% DMSO were used. The results were expressed as the percentage of T. cruzi growth inhibition in compound tested cells as compared to the infected cells and untreated cells. The IC50 values were calculated by linear interpolation. Quadruplicates were run in the same plate, and the experiments were repeated at least once.
# (§2) IC50 over T. cruzi and L929 cells were determined by linear interpolation and the selectivity index (SI) was calculated by the ratio of CC50 L929 cells/ IC50 T. cruzi.
# [5] = Cytotoxicity on L929 cells (AlamarBlue); type: cell-based; conditions: mouse, L929 mouse fibroblast cells
# Method: The medium was then replaced, and the cells were exposed to compounds at increasing concentrations starting at IC50 value for T. cruzi. After 96 h of incubation with the compounds, AlamarBlue^TM was added and the absorbance at 570 and 600 nm was measured after 4–6 h. Controls with untreated and DMSO 1%-treated cells were run in parallel. The results were expressed as the percent difference in the reduction between treated and untreated cells. The compound concentration that inhibits 50% of the L929 cell viability (CC50) was determined. Quadruplicates were run in the same plate and the experiments were repeated at least once.
# as §2
# [6] = system: P. falciparum chloroquine-resistant and mefloquine-sensitive W2 clone; assay: Anti-Plasmodium falciparum activity assay (SYBR, erythrocytic asexual stages); type: cell-based; conditions: for Status: P. falciparum, activity status from IC50 and SI
# Method: In vitro assay with P. falciparum culture were performed as described previously. […] The activity was measured using the SYBR assay with the parasite suspension (0.5% parasitemia and 2% hematocrit) with minor modifications. The test compounds, in serial dilutions, were incubated in “U” bottom 96-wells plates. After 48 h at 37 °C, the culture supernatant was removed and replaced by 100 µL of lysis buffer solution [Tris (20 mM; pH 7.5), EDTA (5 mM), saponin (0.008%; wt/vol), and Triton X 100 (0.08%; vol/vol)] followed by addition of 0.2 µL/mL SYBR Safe (Sigma-Aldrich, Carlsbad, CA, USA). The plate content was transferred to a flat bottom plate and incubated in the dark for 30 min. The plate was read in a fluorometer (Synergy H4 Hibrid Reader, Biotek) with excitation at 485 nm and 535 nm of emission. In all tests, the compound activities were expressed by the 50% inhibitory concentration of the parasite growth (IC50) when compared to the drug-free controls and estimated using the curve-fitting software Origin 8.0 (OriginLab Corporation, Northampton, MA, USA).
# [7] = Cytotoxicity, neutral red uptake assay on BGM cells; type: cell-based; conditions: BGM monkey kidney cells
# Method: The BGM cells were incubated with 20 µL of the drugs at different concentrations (≤1000 µg/mL) for 24 h in a 5% CO2 at 37 °C. The neutral red uptake assay was used to evaluate the lysosomal integrity and distinguishes live cells from dead by its ability to incorporate the dye. Briefly, to each well was added 0.2 mL medium containing 50 µg/mL of neutral red solution. The plate was incubated for another 3 h at 37 °C to allow for the uptake of the vital dye into the lysosomes of viable uninjured cells. After removal of medium, 200 µL of a mixture of 0.5% formaldehyde-1% CaCl2 was added to the cells and incubated by 5 min. The supernatant was removed and 100 µL of a solution of 1% acetic acid-50% ethanol was added to each well to extract the dye. After homogenization, the optical density of each well of the plate was measured using a 540 nm wavelength on a spectrophotometer. This absorbance has shown a linear relationship with the number of surviving cells. The cell viability was expressed as the percentage of control absorbance obtained from the untreated cells after subtracting the appropriate background.
# Plasmodium [8] = system: Plasmodium; design: method as in PMID 33446930, PMID 33307212; conditions: read-out: IC50 plasmodicidal in vitro activity; cited from earlier work
# Plasmodium [9] = system: Plasmodium; design: method as in PMID 33446930, PMID 33307212; conditions: 30mg/(kg × day), 4-day suppressive test; cited from earlier work
# Plasmodium [10] = system: Plasmodium; design: method as in PMID 28223778; conditions: cited from earlier work
# Plasmodium [11] = system: Plasmodium; design: method as in doi:10.1016/j.tetlet.2016.11.071; conditions: read-out: IC50 anti-plasmodial activity; cited from earlier work
# [12] = Plasmodium falciparum, W2, 48 h, P. falciparum W2 clone, 48 h, SYBR, read-out: IC50
# [13] = P. falciparum W2 clone, 48 h, SYBR
molecule,measurement,setting,value
CN1C(=O)C2(CO)NC(=O)C1(Cc1ccccc1)SSSS2 (stereo not shown) [1-demethylhyalodendrin tetrasulfide],cytotoxicity,[1],high cytotoxicity
same,IC50,P. falciparum,6.7 µM
"C[C@@H]1[C@H](O)[C@@H](C)/C=C/C=C/C=C/C=C/C=C/C=C/C=C/[C@H](O[C@@H]2O[C@H](C)[C@@H](O)[C@H](N)[C@@H]2O)C[C@@H]2O[C@](O)(C[C@@H](O)C[C@@H](O)[C@H](O)CC[C@@H](O)C[C@@H](O)CC(=O)O[C@H]1C)C[C@H](O)[C@H]2C(=O)O [Amphotericin B, reference compound]",CC50 at 72 h,[2],367 ± 1 µg/mL
same,IC50,[3],0.228 ± 0.025 µg/mL
"O=C(Cn1ccnc1[N+](=O)[O-])NCc1ccccc1 [Benznidazole, reference compound]",IC50,[4],0.5 ± 0.1 µg/mL
same,CC50 at 96 h,[5],540 µg/mL
"CCN(CC)CCCC(C)Nc1ccnc2cc(Cl)ccc12 (stereo not shown) [Chloroquine, reference compound]",IC50,"[6]; Plasmodium falciparum, W2, 48 h",0.174 ± 0.055 µg/mL
CCc1ccc(C2C(=O)N(c3ccc(Cl)cc3)CC(=O)N2c2ccccc2)cc1 (stereo not shown) [Compound 2],Status,[3],inactive
same,IC50,[3],> 100 µg/mL
CN(C)c1ccc(C2C(=O)N(c3ccc(Cl)cc3)CC(=O)N2c2ccccc2)cc1 (stereo not shown) [Compound 3],Status,[3],inactive
same,IC50,[3],49.1 ± 1.6 µg/mL
O=C1C(c2ccc(Cl)cc2)N(c2ccccc2)C(=O)CN1c1ccc(Cl)cc1 (stereo not shown) [Compound 4],Status,[3],inactive
same,IC50,[3],35.7 ± 0.8 µg/mL
O=C1C(c2ccccc2F)N(c2ccccc2)C(=O)CN1c1ccc(Cl)cc1 (stereo not shown) [Compound 5],IC50,[6]; [12],15.6 ± 2.6 µg/mL
same,CC50 at 24 h,[7],≤ 3.1 µg/mL
same,Status,[4],"toxic (selectivity index = CC50/IC50, values < 10 are considered toxic)"
same,IC50,[4],9.3 ± 0.1 µg/mL
same,CC50 at 96 h,[5],29.2 µg/mL
CC(=O)Nc1ccc(C2C(=O)N(c3ccc(Cl)cc3)CC(=O)N2c2ccccc2)cc1 (stereo not shown) [Compound 7],CC50 at 72 h,[2],679 ± 1 µg/mL
same,Status,[3],part. ACTIVE (20 > IC50 > 10 µg/mL partially active)
same,IC50,[3],16 ± 1 µg/mL
COc1ccc(C2C(=O)N(c3ccc(Cl)cc3)CC(=O)N2c2ccccc2)cc1Br (stereo not shown) [Compound 8],Status,[4],ACTIVE
same,IC50,[4],7.3 ± 1.5 µg/mL
same,CC50 at 96 h,[5],> 400 µg/mL
COc1ccc(OC)c(C2C(=O)N(c3ccc(Cl)cc3)CC(=O)N2c2ccccc2)c1 (stereo not shown) [Compound 9],Status,[3],inactive
same,IC50,[3],50.8 ± 1.1 µg/mL
O=C1C(c2cccc(Cl)c2)N(c2ccccc2)C(=O)CN1c1ccc(Cl)cc1 (stereo not shown) [Compound 10],Status,[6],inactive
same,IC50,[6]; [12],28.1 ± 0.3 µg/mL
O=C1C(c2ccc(F)cc2)N(c2ccccc2)C(=O)CN1c1ccc(Cl)cc1 (stereo not shown) [Compound 11],Status,[3],inactive
same,IC50,[3],38.2 ± 1.8 µg/mL
COc1ccc(N2CC(=O)N(c3ccc(OC)cc3)C(c3ccccc3)C2=O)cc1 (stereo not shown) [Compound 13],Status,[4],inactive
same,IC50,[4],22.3 ± 1.1 µg/mL
O=C1C(c2ccc(O)cc2)N(c2ccccc2)C(=O)CN1c1ccc(Cl)cc1 (stereo not shown) [Compound 14],CC50 at 72 h,[2],611 ± 1 µg/mL
same,Status,[3],ACTIVE
same,IC50,[3],8.3 ± 0.2 µg/mL
O=C1C(c2ccc(O)c(Br)c2)N(c2ccccc2)C(=O)CN1c1ccc(Cl)cc1 (stereo not shown) [Compound 15],Status,[6],"toxic (selectivity index = CC50/IC50, values < 10 are considered toxic)"
same,IC50,[6]; [12],14.9 ± 0.7 µg/mL
same,CC50 at 24 h,[7],18.5 ± 3.4 µg/mL
same,Status,[4],"toxic (selectivity index = CC50/IC50, values < 10 are considered toxic)"
same,IC50,[4],11.2 ± 6 µg/mL
same,CC50 at 96 h,[5],81.8 µg/mL
O=C1C(c2ccccc2F)N(c2ccc(Cl)cc2)C(=O)CN1c1ccc(Cl)cc1 (stereo not shown) [Compound 17],IC50,[6]; [13],9.5 ± 2.1 µg/mL
same,Status,[6],ACTIVE
same,IC50,[6]; [12],< 10 µg/mL
same,CC50 at 24 h,[7],139 ± 18.7 µg/mL
O=C1C(c2ccccc2F)N(c2ccc(Br)cc2)C(=O)CN1c1ccc(Cl)cc1 (stereo not shown) [Compound 19],IC50,[6]; [13],5.4 ± 1.7 µg/mL
same,Status,[6],ACTIVE
same,IC50,[6]; [12],< 10 µg/mL
same,IC50,"[6]; Plasmodium falciparum, W2, P. falciparum, corresponds to 5.4 µg/mL, read-out: IC50 (converted to µM)",12.6 µM
same,CC50 at 24 h,[7],110 ± 11.3 µg/mL
O=C1C(c2ccccc2F)N(c2ccc(F)cc2)C(=O)CN1c1ccc(Cl)cc1 (stereo not shown) [Compound 20],IC50,[6]; [12],17.6 ± 1.3 µg/mL
same,CC50 at 24 h,[7],9.4 ± 5.1 µg/mL
same,Status,[4],"toxic (selectivity index = CC50/IC50, values < 10 are considered toxic)"
same,IC50,[4],15.4 ± 3 µg/mL
same,CC50 at 96 h,[5],32.1 µg/mL
O=C1C(c2ccc(Cl)cc2)N(c2ccc(F)cc2)C(=O)CN1c1ccc(Cl)cc1 (stereo not shown) [Compound 21],Status,[6],inactive
same,IC50,[6]; [12],≥ 50 µg/mL
same,Status,[4],"toxic (selectivity index = CC50/IC50, values < 10 are considered toxic)"
same,IC50,[4],16.1 ± 2 µg/mL
same,CC50 at 96 h,[5],16.8 µg/mL
O=C1C(c2c(F)cccc2Cl)N(c2ccccc2)C(=O)CN1c1ccc(Cl)cc1 (stereo not shown) [Compound 22],Status,[4],ACTIVE
same,IC50,[4],7.2 ± 0.9 µg/mL
same,CC50 at 96 h,[5],> 400 µg/mL
CO[C@]1(CC(C)C)NC(=O)[C@](O)(Cc2ccccc2)NC1=O [Diatretol],IC50,Plasmodium [8],0.6 µM
same,growth inhibition of the parasite in vivo,Plasmodium [9],more than 50%
CC(C)C[C@@H]1NC(=O)[C@@H]2CCCN2C1=O [Gancidin W],in vivo anti-malarial activity,Plasmodium [10],"active, low-toxic"
Naseseazine C,IC50,Plasmodium [11],3.5 µM
